Entries after “also recorded” stand apart in the source; their conditions may differ.
How the values were obtained:
[1] = tested on: 49-day-old S. mansoni adult worms; experiment: In vitro experiments with adult worms of S. mansoni (mortality, motor activity); format: cell-based, Schistosoma mansoni; conditions: for Dead Worms (%) F / Motor Activity Reduction (%) Significant F / Motor Activity Reduction (%) Slight F: female worms; for Dead Worms (%) M / Motor Activity Reduction (%) Significant M / Motor Activity Reduction (%) Slight M: male worms
Outline: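 BH-strain worm pairs recovered from hamsters 49 days post-infection, washed in RPMI 1640 with penicillin, streptomycin and amphotericin B, and cultured as mated pairs with or without drug for 96 h. Motor activity changes and death were scored by microscopy.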

[2] = tested on: murine fibroblast (NIH-3T3) cells; experiment: MTT cytotoxicity assay in murine fibroblasts; format: cell-based; parameters: Emax: dose or concentration left out as unconfirmed
Outline: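 NIH-3T3 cells exposed 24 h to samples at 25–800 µg/mL in 3% DMSO, with 3% DMSO as control. MTT (5 mg/mL stock) added for 2 h, formazan dissolved in DMSO, absorbance read at 595 nm.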

[3] = tested on: S. mansoni schistosomula and adult worms; parameters: method as in PMID 20832410, PMID 22796749; conditions: cited from earlier work
[4] = tested on: mouse BALB/cN macrophage (J774A.1) cell line; experiment: Cell viability by flow cytometry in macrophages; conditions: 24 h, 25, 100 and 400 µg/mL, vs DMEM control
J774A.1 cells = experiment: Cell death mechanism, annexin-V FITC / propidium iodide staining by flow cytometry; format: cell-based, mouse; conditions: J774A.1, 24 h; piplartine 25 μg/mL, 14B 400 μg/mL
Method: Cells were then treated with 2 µL of annexin-V FITC (Apoptosis Detection Kit; BD Biosciences, Franklin Lakes, NJ, USA) and 2 µL of propidium iodide (PI, 50 µg/mL) for 15 min in the dark at room temperature. Next, 100 µL binding buffer was added and samples were analysed by flow cytometry (BD LSFortessa^TM, Franklin Lakes, NJ, USA). A total of 20,000 events were collected per sample.

With COc1cc(/C=C/C(=O)N2CCC=CC2=O)cc(OC)c1OC [Piplartine, 3,4,5-trimethoxycinnamoyl-N-dihydropyridin-2-one] the “Dead Worms (%) F” value ([1]; 5 µM, 24 h) was 0%, the “Motor Activity Reduction (%) Significant F” value ([1]; 5 µM, 24 h) was 0% and the “Motor Activity Reduction (%) Slight F” value ([1]; 5 µM, 24 h) was 100%. For the same compound, the “Dead Worms (%) M” value ([1]; 5 µM, 24 h) was 0%, the “Motor Activity Reduction (%) Significant M” value ([1]; 5 µM, 24 h) was 0% and the “Motor Activity Reduction (%) Slight M” value ([1]; 5 µM, 24 h) was 100%. The “Dead Worms (%) F” value ([1]; 5 µM, 48 h) was 0%, the “Motor Activity Reduction (%) Significant F” value ([1]; 5 µM, 48 h) was 0% and the “Motor Activity Reduction (%) Slight F” value ([1]; 5 µM, 48 h) was 100%. The “Dead Worms (%) M” value ([1]; 5 µM, 48 h) was 0%, the “Motor Activity Reduction (%) Significant M” value ([1]; 5 µM, 48 h) was 0% and the “Motor Activity Reduction (%) Slight M” value ([1]; 5 µM, 48 h) was 100%. The “Dead Worms (%) F” value ([1]; 5 µM, 72 h) was 0%, the “Motor Activity Reduction (%) Significant F” value ([1]; 5 µM, 72 h) was 0% and the “Motor Activity Reduction (%) Slight F” value ([1]; 5 µM, 72 h) was 100%. The “Dead Worms (%) M” value ([1]; 5 µM, 72 h) was 0%, the “Motor Activity Reduction (%) Significant M” value ([1]; 5 µM, 72 h) was 0% and the “Motor Activity Reduction (%) Slight M” value ([1]; 5 µM, 72 h) was 100%. The “Dead Worms (%) F” value ([1]; 5 µM, 96 h) was 60%, the “Motor Activity Reduction (%) Significant F” value ([1]; 5 µM, 96 h) was 60% and the “Motor Activity Reduction (%) Slight F” value ([1]; 5 µM, 96 h) was 0%. For the same compound, the “Dead Worms (%) M” value ([1]; 5 µM, 96 h) was 60%, the “Motor Activity Reduction (%) Significant M” value ([1]; 5 µM, 96 h) was 60% and the “Motor Activity Reduction (%) Slight M” value ([1]; 5 µM, 96 h) was 0%. For the same compound, the “Dead Worms (%) F” value ([1]; 10 µM, 24 h) was 100%, the “Motor Activity Reduction (%) Significant F” value ([1]; 10 µM, 24 h) was 100% and the “Motor Activity Reduction (%) Slight F” value ([1]; 10 µM, 24 h) was 0%. The “Dead Worms (%) M” value ([1]; 10 µM, 24 h) was 100%, the “Motor Activity Reduction (%) Significant M” value ([1]; 10 µM, 24 h) was 100% and the “Motor Activity Reduction (%) Slight M” value ([1]; 10 µM, 24 h) was 0%. For the same compound, the “Dead Worms (%) F” value ([1]; 10 µM, 48 h) was 100%, the “Motor Activity Reduction (%) Significant F” value ([1]; 10 µM, 48 h) was 100% and the “Motor Activity Reduction (%) Slight F” value ([1]; 10 µM, 48 h) was 0%. For the same compound, the “Dead Worms (%) M” value ([1]; 10 µM, 48 h) was 100%, the “Motor Activity Reduction (%) Significant M” value ([1]; 10 µM, 48 h) was 100% and the “Motor Activity Reduction (%) Slight M” value ([1]; 10 µM, 48 h) was 0%. The “Dead Worms (%) F” value ([1]; 10 µM, 72 h) was 100%, the “Motor Activity Reduction (%) Significant F” value ([1]; 10 µM, 72 h) was 100% and the “Motor Activity Reduction (%) Slight F” value ([1]; 10 µM, 72 h) was 0%. The “Dead Worms (%) M” value ([1]; 10 µM, 72 h) was 100%, the “Motor Activity Reduction (%) Significant M” value ([1]; 10 µM, 72 h) was 100% and the “Motor Activity Reduction (%) Slight M” value ([1]; 10 µM, 72 h) was 0%. For the same compound, the “Dead Worms (%) F” value ([1]; 10 µM, 96 h) was 100%, the “Motor Activity Reduction (%) Significant F” value ([1]; 10 µM, 96 h) was 100% and the “Motor Activity Reduction (%) Slight F” value ([1]; 10 µM, 96 h) was 0%. The “Dead Worms (%) M” value ([1]; 10 µM, 96 h) was 100%, the “Motor Activity Reduction (%) Significant M” value ([1]; 10 µM, 96 h) was 100% and the “Motor Activity Reduction (%) Slight M” value ([1]; 10 µM, 96 h) was 0%. The “concentrations active against S. mansoni” value ([1]; adult worms) was 5 to 10 µM, the “activity against S. mansoni adult worms (in words)” value ([1]; analogues 50, 25, 10 and 5 μM, piplartine 5 and 10 μM, up to 96 h) was “showed activity against the parasite 24 h after incubation” and the “effect on NIH-3T3 cell viability (in words)” value ([2]; MTT, 24 h exposure, 25 to 800 µg/mL) was “decreased cell viability after 24 h of exposure, exhibiting considerable toxicity; also recorded: showed toxicity at all concentrations tested”. The Emax ([2]; Mus musculus, NIH3T3, 24 h) was 96.94 ± 0.12%, the “concentration with in vitro schistosomicidal activity” value [3] was 10 µM and the “effect on J774A.1 cell viability (in words)” value [4] was “significantly (p < 0.05) affected cell viability at concentrations of 25 and 100 µg/mL”. The “effect on J774A.1 cell viability (in words)” value ([4]; listed as piplartine) was “more toxic to mammalian cells than the analogues” and the “annexin-V FITC staining (apoptosis marker) vs DMEM negative control (in words)” value (J774A.1 cells) was “significant (p < 0.05) increase in annexin-V FITC staining”.

— PMC6032158, “Structure–Activity Relationship of Piplartine and Synthetic Analogues against Schistosoma mansoni and Cytotoxicity to Mammalian Cells” (International Journal of Molecular Sciences, 2018)
